Laboratory results as given in PubChem BioAssay (NCI).
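48-hour exposure; five concentrations; linearly interpolated endpoints. GI50 = concentration required for 50% inhibition of growth. TGI marks complete inhibition of growth.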

What was measured:
Test in all cases: NCI tumour cell line growth inhibition, 48 h
MALME-3M melanoma = tested on: MALME-3M melanoma
HL-60(TB) leukemia = tested on: HL-60(TB) leukemia
RPMI-8226 leukemia = tested on: RPMI-8226 leukemia
SN12C renal = tested on: SN12C renal
SF-539 CNS = tested on: SF-539 CNS
TK-10 renal = tested on: TK-10 renal
SR leukemia = tested on: SR leukemia
OVCAR-5 ovarian = tested on: OVCAR-5 ovarian
SK-OV-3 ovarian = tested on: SK-OV-3 ovarian
A498 renal = tested on: A498 renal
CCRF-CEM leukemia = tested on: CCRF-CEM leukemia

Row | SMILES | TGI (MALME-3M melanoma) [µM] | TGI (HL-60(TB) leukemia) [µM] | TGI (RPMI-8226 leukemia) [µM] | TGI (SN12C renal) [µM] | TGI (SF-539 CNS) [µM] | TGI (TK-10 renal) [µM] | TGI (SR leukemia) [µM] | TGI (OVCAR-5 ovarian) [µM] | TGI (SK-OV-3 ovarian) [µM] | TGI (A498 renal) [µM] | TGI (CCRF-CEM leukemia) [µM] | GI50 (MALME-3M melanoma) [µM] | GI50 (HL-60(TB) leukemia) [µM] | GI50 (RPMI-8226 leukemia) [µM] | GI50 (SN12C renal) [µM] | GI50 (SF-539 CNS) [µM] | GI50 (A498 renal) [µM] | GI50 (CCRF-CEM leukemia) [µM] | GI50 (TK-10 renal) [µM] | GI50 (OVCAR-5 ovarian) [µM]
1 | CCCC(CCC(=O)O)(CCC(=O)O)[N+](=O)[O-] | > 100 | > 100 | > 100 | > 100 | > 100 | > 100 | > 100 | > 100 | > 100 |  |  |  |  |  |  |  |  |  |  | 
2 | CCN1CC2(CO)CCC(OC)C34C5CC6C(OC)CC(O)(C5C6OC)C(O)(C(OC)C23)C14 (configuration not stated) | > 375 | > 375 | > 375 | > 375 | > 375 |  |  | > 209 | > 375 | > 375 | > 375 |  |  |  |  |  |  |  |  | 
3 | COC(=O)C1=C(C(=O)OC)SC2(S1)C(C(=O)OC)=C(C(=O)OC)Sc1c2ssc1=O | 1.55 | 0.0492 | 5.68 | 2.96 | 3.35 | 3.04 |  | 5.02 | 24.8 | 3.68 | 0.307 |  |  |  |  |  |  |  |  | 
4 | O=S1(=O)OCCOS(=O)(=O)C1C1c2ccccc2-c2ccccc21 | > 100 | 58.9 | > 100 | > 100 | > 100 | > 100 |  | > 100 | > 100 | > 100 | 89.4 |  |  |  |  |  |  |  |  | 
5 | O/N=C1/C(=C/c2ccc(Br)cc2)CCCC1C(NO)c1ccc(Br)cc1 (configuration not stated) | 31.9 | > 100 | 48.4 | 24.9 | 44.8 | 33 |  | 24.6 | 44.8 | 23 | 51.2 |  |  |  |  |  |  |  |  | 
6 | Clc1ccc(CCNCCNC2(c3cc4ccccc4s3)CCCCC2)cc1Cl | 3.44 |  | 4.62 | 3.53 |  | 3.07 | 4.19 | 3.64 | 2.81 | 3.17 | 5.39 |  |  |  |  |  |  |  |  | 
7 | O=C(Cn1cc(I)c(C(=O)NCC(O)CO)n1)NCC(O)CO (configuration not stated) | > 100 | > 100 | > 100 | > 100 | > 100 | > 100 |  |  | > 100 | > 100 | > 100 |  |  |  |  |  |  |  |  | 
8 | Cc1cc2nc3c(C)c4ccccc4c(C)n3c2cc1C | 6.66 | 6.33 | > 10 | > 10 | 4.88 | > 10 | 9.01 | > 10 | > 10 |  | > 10 |  |  |  |  |  |  |  |  | 
9 | Cc1ccc(C2=C(c3ccccc3)C(O)(c3ccccc3)C(c3ccccc3)=C2c2ccc(C)cc2)cc1 | > 100 |  | > 100 | > 100 | > 100 | > 100 | > 100 | > 100 | > 100 | > 100 |  |  |  |  |  |  |  |  |  | 
10 | Cn1c(SCc2ccc([N+](=O)[O-])cc2)nnc1C12CC3CC(CC(C3)C1)C2 | > 10 | > 10 | > 10 | > 10 | > 10 |  |  | > 10 | > 10 | > 10 | > 10 |  |  |  |  |  |  |  |  | 
11 | CC(=O)O[C@H]1C(=O)[C@@]2(C)C(C(OC(=O)c3ccccc3)[C@]3(O)CC(OC(=O)C(O)C(NC(=O)c4cccc(Cl)c4)c4ccccc4)C(C)=C1C3(C)C)[C@]1(OC(C)=O)CO[C@@H]1C[C@@H]2O (some centres not stated) | > 10 | 0.419 | > 10 | > 10 | 2.19 | > 10 | 5.15 | > 10 | > 10 |  | 5.91 |  |  |  |  |  |  |  |  | 
12 | O=c1oc2c(Cl)cc(Cl)cc2cc1-c1cn2c(n1)sc1ccccc12 | > 100 | 66.9 | 89.1 | > 100 | > 100 | > 100 | 53.1 | > 100 | > 100 |  | 55.6 |  |  |  |  |  |  |  |  | 
13 | C#CCn1c(=O)c2cc(OC)c(OC)cc2n(CC#C)c1=O | > 10 |  | > 10 | > 10 | > 10 | > 10 |  | > 10 | > 10 | > 10 | > 10 |  |  |  |  |  |  |  |  | 
14 | CSCCC(NOC(=O)Cc1ccccc1)P(=O)(O)c1ccccc1 (configuration not stated) |  | > 100 | > 100 | > 100 |  | > 100 | > 100 | > 100 | > 100 |  | > 100 |  |  |  |  |  |  |  |  | 
15 | CCN(CC)CCNC(=O)C1COc2ccc(-c3cc(=O)c4ccccc4o3)cc2O1 (configuration not stated) | 30.3 | 30.8 | 55.2 | 55.1 | 30 |  |  | 56.7 | 47 | 30.3 | 68.6 |  |  |  |  |  |  |  |  | 
16 | C=C1C(=O)OC2C=C(C)CC3C=C(CCC=C(C)CCC12)C(=O)O3 (configuration not stated) | > 81.4 | 73.4 | 155 | 157 | 199 |  |  | 208 | 280 | 167 | 104 |  |  |  |  |  |  |  |  | 
17 | CN(C)CC(O)CNC(=O)Nc1ccccc1 (configuration not stated) | > 100 | > 100 | > 100 | > 100 | > 100 | > 100 |  | > 100 | > 100 | > 100 | > 100 |  |  |  |  |  |  |  |  | 

Row | SMILES | TGI (MALME-3M melanoma) [µM] | TGI (HL-60(TB) leukemia) [µM] | TGI (RPMI-8226 leukemia) [µM] | TGI (SN12C renal) [µM] | TGI (SF-539 CNS) [µM] | TGI (TK-10 renal) [µM] | TGI (SR leukemia) [µM] | TGI (OVCAR-5 ovarian) [µM] | TGI (SK-OV-3 ovarian) [µM] | TGI (A498 renal) [µM] | TGI (CCRF-CEM leukemia) [µM] | GI50 (MALME-3M melanoma) [µM] | GI50 (HL-60(TB) leukemia) [µM] | GI50 (RPMI-8226 leukemia) [µM] | GI50 (SN12C renal) [µM] | GI50 (SF-539 CNS) [µM] | GI50 (A498 renal) [µM] | GI50 (CCRF-CEM leukemia) [µM] | GI50 (TK-10 renal) [µM] | GI50 (OVCAR-5 ovarian) [µM]
18 | COc1cc2ccnc3c2c(c1OC)N(C)C=C3 |  |  | 82.2 | > 100 |  | > 100 | 64.9 | > 100 | 79.3 | > 100 |  |  |  |  |  |  |  |  |  | 
19 | Nc1ccc(Oc2ccc(C34CC5CC(C3)CC(c3ccc(Oc6ccc(N)c(O)c6)cc3)(C5)C4)cc2)cc1O | 6.24 |  | > 100 | > 21.2 | 4.57 | > 20.3 | > 100 | 4.3 | 8.57 | 36.1 |  |  |  |  |  |  |  |  |  | 
20 | CCC(/C(=N/NC(=O)C[N+](C)(C)C)c1ccccc1)C1OC(=O)c2ccccc21 (configuration not stated) | > 100 | > 100 | > 100 | > 100 | > 100 | > 100 | > 100 | > 100 | > 100 |  | > 100 |  |  |  |  |  |  |  |  | 
21 | O=C(/C=C/c1cc2ccccc2[nH]c1=O)c1ccc(O)cc1 | 33.6 | 6.86 | 24.8 | 16 | 8.64 | 11.8 |  | 12.8 |  | 21.3 | > 100 | 10.4 | 2.66 | 3.2 | 3.48 | 2.55 | 8.44 | 2.38 | 3.81 | 3.2
22 | CCCCCCCCC/C=C1/CC(CO)(COC(=O)C2CCCCC2)OC1=O (configuration not stated) | > 100 |  |  | > 100 |  | > 100 | > 100 | > 100 | > 100 | > 100 | > 100 |  |  |  |  |  |  |  |  | 
23 | Nc1ccc2ncc(NCc3ccc(F)cc3)nc2c1 | > 100 | > 100 | > 100 | > 100 | > 100 | > 100 | > 100 | > 100 | > 100 |  | > 100 |  |  |  |  |  |  |  |  | 
24 | OC[C@@H](O)[C@H](O)[C@H](O)[C@@H](O)C1SCCCS1 |  |  | > 100 | > 100 | > 100 | > 100 | > 100 | > 100 | > 100 | > 100 |  |  |  |  |  |  |  |  |  | 
25 | COc1ccc(-c2oc(C=Nc3ccccc3)c([N+](=O)[O-])c2-c2ccc(OC)c(OC)c2)cc1OC | > 100 | > 100 | > 100 | > 100 | > 100 | > 100 | > 100 | > 100 | > 100 |  |  |  |  |  |  |  |  |  |  | 
26 | Cc1nc(-n2nc(-c3ccccc3)cc2-c2ccccc2)sc1C(/C=C\c1ccc([N+](=O)[O-])cc1)=N/NC(=S)NN | > 100 | > 87.2 | > 100 | > 31.6 | > 61.3 | > 59.2 |  | > 65.4 | > 100 | > 100 | > 100 |  |  |  |  |  |  |  |  | 
27 | O=C(C#Cc1ccccc1)Nc1ccccc1CC(c1c[nH]c2ccccc12)c1c[nH]c2ccccc12 | > 100 |  | 16.8 | 30 | 30.1 | 96.6 |  |  | > 100 |  | 20 |  |  |  |  |  |  |  |  | 
28 | CN(C)c1ccc(/C=C(\C#N)C(=O)c2ccccc2)cc1Br | > 100 | 57.6 | 63.4 | > 100 | > 100 | > 100 | > 100 | > 100 | > 100 |  | > 100 |  |  |  |  |  |  |  |  | 
29 | COc1ccccc1-c1nc[nH]c1-c1ccccc1OC | 52.9 |  | > 100 | > 100 |  | > 100 |  | > 100 | > 100 | > 100 |  |  |  |  |  |  |  |  |  | 
30 | N#Cc1ccccc1C#C/C=C\C#Cc1ccccn1 | 39.6 | 63.6 |  | 47.8 | 45.1 | 96.2 | 36.2 | 58.6 | 76.7 |  | > 100 |  |  |  |  |  |  |  |  | 
31 | Cc1ccc2c(=O)cc(-c3ccccc3)[nH]c2n1 | > 100 |  | > 15.1 | > 36 | 2.79 | > 9.36 |  | > 100 | > 21 |  |  |  |  |  |  |  |  |  |  | 
32 | CCOC1=C2N=C(C(CC)c3ccc(F)cc3)N=C2C(=O)c2ccccc21 (configuration not stated) | 61.8 | > 73.7 | > 88.5 | > 66.7 | 21.6 | 66.7 | 89.2 | > 100 | > 100 |  | > 100 |  |  |  |  |  |  |  |  | 
33 | Nc1nc2c(nnn2C2C=C(CO)C(O)C2O)c(=O)[nH]1 (configuration not stated) | > 100 |  |  | > 100 | > 100 | > 100 | > 100 | > 100 | > 100 | > 100 | > 100 |  |  |  |  |  |  |  |  | 
